The values that follow come from patent publication US10253319B2, “miRNA modulators of thermogenesis” (AptamiR Therapeutics, Inc., priority 2012, dated 2019).

The test concerns UCP3. In words: UCP3 mRNA expression change in pre-adipocytes, RNA-Seq (Table 14). Conditions: 12 days, 100 nM rosiglitazone or 25 nM miRNA analog. The test is classed as cell-based, human. Here is the method: In order to assess the effect of miRNA analogs on human pre-adipocytes differentiation into mature adipocytes, human subcutaneous pre-adipocytes (SuperLot 0048 from 8 female donors, ZenBio, NC) were plated on Day 0 into 96-well plates and allowed to attach overnight in preadipocyte medium (DMEM/Ham's F-12 (1:1, v/v), HEPES buffer, Fetal bovine serum and Antibiotics). The next day (Day 1), the medium was removed and replaced with differentiation medium (DMEM/Ham's F-12 (1:1, v/v), 100 μM Ascorbic Acid, 0.85 μM insulin, 20 nM sodium selenite, 0.2 nM, triiodothryonine, 1 μM dexamethasone, 100 μM isobutyl-methylxanthine, 100 nM Rosiglitazone and Antibiotics. The cells were allowed to incubate for 2 days at 37°, 5% CO2. After 2 days (Day 3), the medium was removed and replaced with fresh maintenance medium (DMEM/Ham's F-12 (1:1, v/v), 100 μM Ascorbic Acid, 0.85 μM insulin, 20 nM sodium selenite, 0.2 nM triiodothryonine, and Antibiotics). On Day 3, the cells were transfected with miRNA analogs (Dharmacon specific miRIDIAN Mimics and Hairpin Inhibitors) using the transfecting agent Dharmafect1. All treatments were in triplicate. […]
Changes in mRNA expression of UCP1, 2 and 3 were also measured in the presence of rosiglitazone or miRNA analogs, as shown below in Table 14.

The structures appear in SMILES notation.

For `CN(CCOc1ccc(CC2SC(=O)NC2=O)cc1)c1ccccn1` (stereo not shown) [rosiglitazone], the “mRNA Expression changes (log ratios) UCP3” value came to 0.26 log ratios.
